According to patent US10561704B2, “Compositions and methods for treating neuropsychiatric disorders using an endothelin-B receptor agonist” (MIDWESTERN UNIVERSITY, priority 2013, dated 2020):
Marks after values point to notes of the source that are not given here. *1 amine or outer side, *2 acyl side, *3 side chain or, on linkers, in order; H or OH if unused. Where no end group is shown, it is not given here. Suc = O=C(CCC(=O)[*:2])[*:1]

Experiments:
[1] = test system: middle cerebral artery occluded rats; assay: 7 day survival following focal cerebral ischemia (MCAO); format: in vivo
Description: FIG. 13: Effect of ETB receptor agonist, IRL-1620, in presence and absence of BQ788 on 7 day survival of rats undergoing either sham surgery or middle cerebral artery occlusion.
Effect of IRL-1620 on 7 day survival of rats following focal cerebral ischemia: Studies were also conducted to determine the effect of stimulating ETB receptors using a selective agonist, IRL-1620, in rats with middle cerebral artery occlusion (MCAO). […] However, MCAO rats in the vehicle treated group presented with 38% mortality by 7th day. […] Preliminary results and supporting literature have prompted the investigation of the mechanism involved in neuroprotective and neurorestorative effects of stimulating ETB receptors in rats with cerebral ischemia.

[2] = test system: middle cerebral artery occluded rats; assay: Infarct volume and edema 7 days post middle cerebral artery occlusion; format: in vivo
Description: FIG. 12: Two mm coronal sections of brains stained with TTC to visualize the infarct area 7 days post middle cerebral artery occlusion (red indicates normal tissue and white indicates infarct tissue). Representative slices from groups are shown. IRL-1620 (5 μg/kg, IV) or isotonic saline (1 ml/kg, IV) was injected at 2, 4, and 6 hr post MCAO. BQ-788 (1 mg/kg, IV) was administered once 15 min prior to the first injection of IRL-1620 or vehicle.

[3] = test system: Aβ induced oxidative stress in the rat brain; assay: Oxidative stress markers (MDA, GSH, SOD) in brains of Aβ treated non-diabetic and diabetic rats; format: in vivo, Sprague-Dawley rats; details: for Brain malondialdehyde (MDA) level: IRL-1620 3 μg i.c.v. daily 14 days
Description: Male Sprague-Dawley rats (Harlan, Indianapolis, Ind.) weighing 280-310 g were allowed to acclimate for at least 4 days before use. Animals were housed in a room with controlled temperature (23±1° C.), humidity (50±10%), and light (6:00 A.M. to 6:00 P.M.). Food and water were available continuously. Animal care and use for experimental procedures were approved by the Institutional Animal Care and Use Committee (IACUC) of Midwestern University. All anesthetic and surgical procedures were in compliance with the guidelines established by the IACUC of Midwestern University.
Amyloid-β (1-40) (Tocris Bioscience, Ellisville, Mo., USA), IRL-1620 [N-Succinyl-[Glu9, Ala11,15] endothelin 1] (American Peptide Co, Inc., Sunnyvale, Calif., USA) and BQ788 (American Peptide Co, Inc., Sunnyvale, Calif., USA) were dissolved in sterile saline and all the solutions were freshly prepared before injections. Ketamine (Butler Animal Health Supply, Dublin, Ohio, USA) was administered at a dose of 100 mg/kg, intraperitoneally (i.p.), and xylazine (Lloyd Laboratories, Shenandoah, Iowa, USA) was administered at a dose of 10 mg/kg, i.p. Rats were anesthetized with ketamine (100 mg/kg) and xylazine (10 mg/kg) and a lateral cerebral ventricle was cannulated by placing the rat in a stereotaxic (David Kopf Instruments, Tujunga, Calif., USA) instrument and fixing the cannula (coordinates: 1.0 mm lateral, 1.5 mm caudal to bregma and 4.0 mm deep from the bone). Cannula (Plastics One, Roanoke, Va., USA) was anchored with dental acrylic to three screws placed in the skull. The animals were allowed to recover from surgery for at least seven days. After 7 days, rats were treated with vehicle, Aβ (1-40), ETB receptor agonist and/or antagonist in the lateral cerebral ventricles using the implanted cannula. Vehicle, Aβ or ETB receptor agonist and antagonist were injected in a volume of 5 μl over a period of 5 minutes. Aβ (1-40) was used because it is highly soluble compared to Aβ (1-42) and induces endothelial dysfunction of both cerebral and systemic blood vessels in addition to memory deficit (Nitta et al., 1994; Niwa et al., 2000; Smith et al., 2004; Weller et al., 1998). Agents were delivered using 10 μl Hamilton syringe and agent treatments were carried out individually using separate 10 μl syringe. IRL-1620 was administered 1 hour after Aβ injection whereas BQ788 was administered 15 minutes prior to IRL-1620 injection. At the end of the experiment, placement of cannula was confirmed by injecting methylene blue dye (5 μl) and observing the site and extent of staining. All experiments were performed on day 15 (Briyal et al., 2011). Water maze testing was performed from day 15 to day 19 after which animals were euthanized. Animals used for oxidative stress measurements were euthanized on day 15 without being subjected to any behavioral testing. Diabetes mellitus type 2 was induced in rats belonging to the diabetic group by administering freshly prepared streptozotocin at the dose of 45 mg/kg, i.p. Streptozotocin was dissolved in 0.01 M sodium citrate buffer of pH 4.3. On day 3, blood glucose was obtained from the rat-tail and tested for hyperglycemia using the SureStep Complete Blood Glucose monitor kit. Rats with blood glucose levels above 11.1 mM were considered diabetic. Diabetic and non-diabetic animals were randomly divided into five groups (6 rats per group) (i) Sham, (ii) Aβ+Vehicle, (iii) Aβ+IRL-1620, (iv) Aβ+BQ788 (v) Aβ+BQ788+IRL-1620. Aβ (1-40) was administered intracerebroventricularly (i.c.v.) (20 μg in 3 equally divided doses i.e. 6.67 μg were injected 3 times for a total of 20 μg dose) on day 1, 7, and 14. Specific ETB receptor agonist, IRL-1620 (3 μg) and specific ETB receptor antagonist, BQ788 (10 μg) were administered i.c.v. daily for 14 days starting from day 1 of Aβ injection. The doses of IRL-1620 and BQ788 were selected on the basis of previous studies conducted in our laboratory (Leonard et al., 2011). […]

[4] = test system: middle cerebral artery occluded rats; assay: Neurological deficit and motor function post middle cerebral artery occlusion; format: in vivo; details: for Distance Traveled (cm) / Foot Fault Error (%) / Grip Test (6 point scale) / Neurological Evaluation (6 point scale) / Rota Rod Duration / Vertical Breaks: MCAO rats
Description: Effect of IRL-1620 on neurological deficit following focal cerebral ischemia: In a preliminary study, the effect of selectively activating ETB receptors by IRL-1620 following permanent middle cerebral artery occlusion in rats was determined.

[5] = Aβ treated diabetic rats, day 15
[6] = Aβ treated non-diabetic rats, day 15

Row | Molecule | Mortality during 7 day observation [1] | Distance Traveled (cm) ([4]; Baseline) | Foot Fault Error (%) ([4]; Baseline) | Grip Test (6 point scale) ([4]; Baseline) | Neurological Evaluation (6 point scale) ([4]; Baseline) | Rota Rod Duration ([4]; Baseline) [s] | Vertical Breaks ([4]; Baseline) | Distance Traveled (cm) ([4]; Day 1) | Foot Fault Error (%) ([4]; Day 1) | Grip Test (6 point scale) ([4]; Day 1) | Neurological Evaluation (6 point scale) ([4]; Day 1) | Rota Rod Duration ([4]; Day 1) [s] | Vertical Breaks ([4]; Day 1) | Distance Traveled (cm) ([4]; Day 4) | Foot Fault Error (%) ([4]; Day 4) | Grip Test (6 point scale) ([4]; Day 4) | Neurological Evaluation (6 point scale) ([4]; Day 4) | Rota Rod Duration ([4]; Day 4) [s] | Vertical Breaks ([4]; Day 4) | Distance Traveled (cm) ([4]; Day 7) | also measured
1 | CCCC[C@@H](NC(=O)[C@@H](Cc1cn(C(=O)OC)c2ccccc12)NC(=O)[C@H](CC(C)(C)C)NC(=O)N1[C@H](C)CCC[C@@H]1C)C(=O)O [BQ788, reference compound] | 25% | 5141 ± 285 | 5.96 ± 1.75 | 3.33 ± 0.33 | 0 ± 0 | 102.00 ± 5.14 | 55.17 ± 3.74 | 1168 ± 417 | 52.12 ± 11.93*^@ % | 0.67 ± 0.33*^@ | 3.00 ± 0.58*^@ | 37.83 ± 20.87 | 5.33 ± 2.47 | 1246 ± 410 | 68.89 ± 12.27*^@ % | 0.33 ± 0.24 | 3.33 ± 0.62*^@ | 37.67 ± 14.92 | 4.33 ± 1.52 | 2280 ± 836 | Edema ([2]; MCAO 7 days, BQ-788 followed by IRL-1620): 17.97±5.17%; Edema ([2]; MCAO 7 days, BQ-788 followed by vehicle): 17.02±3.17%; Infarct volume ([2]; MCAO 7 days, BQ-788 given with either vehicle or IRL-1620): did not reduce; Brain superoxide dismutase (SOD) level ([3]; Aβ treated diabetic rats, pretreated with BQ788 prior to IRL-1620): 16.52±0.45 U/mg protein; Brain superoxide dismutase (SOD) level ([3]; Aβ treated non-diabetic rats, pretreated with BQ788 prior to IRL-1620): 15.32±0.44 U/mg protein; IRL-1620 induced change in MDA levels ([3]; Aβ treated rats, BQ788 administered prior to IRL-1620): blocked; Brain reduced glutathione (GSH) level ([3]; Aβ treated rats, pretreatment with BQ788 before IRL-1620, diabetic status not stated): 81.2±5.49 μg/g wet tissue; Foot Fault Error (%) ([4]; Day 7): 75.00 ± 17.67*^@ %; Grip Test (6 point scale) ([4]; Day 7): 1.67 ± 0.62; Neurological Evaluation (6 point scale) ([4]; Day 7): 3.00 ± 0.82*^@; Rota Rod Duration ([4]; Day 7): 49.67 ± 17.56 s; Vertical Breaks ([4]; Day 7): 11.00 ± 3.97
2 | Suc-Asp-Glu-Glu-Ala-Val-Tyr-Phe-Ala-His-Leu-Asp-Ile-Ile-Trp (Suc-DEEAVYFAHLDIIW) [IRL-1620] | no mortality | 5073 ± 334 | 4.05 ± 1.31 | 3.86 ± 0.46 | 0 ± 0 | 113.29 ± 8.34 | 61.50 ± 4.94 | 1611 ± 325 | 18.85 ± 6.48 % | 2.71 ± 0.52 | 1.29 ± 0.36 | 78.71 ± 22.59 | 12.75 ± 4.76 | 2898 ± 451 | 14.00 ± 3.66 % | 2.33 ± 0.58 | 0.67 ± 0.22 | 97.33 ± 2.08 | 26.33 ± 2.08 | 3472 ± 732 | Edema: infarcted hemisphere larger than non-infarcted hemisphere ([2]; MCAO 7 days): 1.51±1.81%; Infarct volume ([2]; MCAO for 7 days, IRL-1620 5 μg/kg IV at 2, 4, 6 hr post MCAO): 54.06±14.12 mm^3; Reduction of infarct volume ([2]; chronic study, 1 week (Leonard et al., 2012)): 69.49%; Brain malondialdehyde (MDA) level [3, 5]: 315.09±5.25 nmol/g wet tissue; Brain reduced glutathione (GSH) level [3, 5]: 166.42±6.63 μg/g wet tissue; Brain superoxide dismutase (SOD) level [3, 5]: 21.4±1.65 U/mg protein; Brain malondialdehyde (MDA) level [3, 6]: 278.47±8.55 nmol/g wet tissue; Brain reduced glutathione (GSH) level [3, 6]: 192.74±6.26 μg/g wet tissue; Brain superoxide dismutase (SOD) level [3, 6]: 22.26±1.16 U/mg protein; Foot Fault Error (%) ([4]; Day 7): 8.28 ± 1.09 %; Grip Test (6 point scale) ([4]; Day 7): 3.33 ± 0.22; Neurological Evaluation (6 point scale) ([4]; Day 7): 0.67 ± 0.22; Rota Rod Duration ([4]; Day 7): 123.67 ± 7.28 s; Vertical Breaks ([4]; Day 7): 34.33 ± 3.78; Neurological and motor function tests ([4]; preliminary study, 24 hours after permanent MCAO, vs vehicle-treated): significant improvement
